For assay [1], the system named is microglia. Briefly: Engulfment of aggregated Aβ(1-40) by activated microglia. In kind it is cell-based, mouse. The conditions noted are these: 10 ng/ml; Aβ(1-40) 5 μg/ml for 1 h, vs untreated microglia (FIG. 5). On the procedure: FIGS. 5A-5B show engulfment of aggregated Aβ by activated microglia. Microglia were treated with IL-4 (10 ng/ml) 24 h after seeding (MG(IL-4)) or were left untreated for 48 h (MG(−)). The media were then replaced by a labeling medium (DMEM containing 10 mg/ml bovine serum albumin), and aggregated Aβ(1-40) was added (5 μg/ml) for 1 h. Following incubation the cultures were fixed and immunostained with antibodies directed to human Aβ and co-stained for microglia (IB-4). (FIG. 5A) Confocal photomicrographs. (FIG. 5B) Quantitative analysis expressed as intensity per cell. Results of one of two experiments, each containing eight replicates (20-30 cells per replicate) per group are presented (means±SD).
Brains from neonatal (P0-P1) C57Bl/6J mice were stripped of their meninges and minced with scissors under a dissecting microscope (Zeiss, Stemi DV4, Germany) in Leibovitz-15 medium (Biological Industries, Kibbutz Beit Ha-Emek, Israel). After trypsinization (0.5% trypsin, 10 min, 37° C./5% CO2), the tissue was triturated. […]

Assay [2] deals with microglia. Briefly: CD11c expression and morphology in primary culture of mouse microglia. In kind it is cell-based. As for the experimental part: Brains from neonatal (P0-P1) C57Bl/6J mice were stripped of their meninges and minced with scissors under a dissecting microscope (Zeiss, Stemi DV4, Germany) in Leibovitz-15 medium (Biological Industries, Kibbutz Beit Ha-Emek, Israel). After trypsinization (0.5% trypsin, 10 min, 37° C./5% CO2), the tissue was triturated. The cell suspension was washed in culture medium for glial cells [DMEM supplemented with 10% fetal calf serum (FCS; Sigma-Aldrich, Rehovot), L-glutamine (1 mM), sodium pyruvate (1 mM), penicillin (100 U/ml), and streptomycin ([…])] and cultured at 37° C./5% CO2 in 75-cm^2 Falcon tissue-culture flasks (BD Biosciences) coated with poly-D-lysine (PDL) (10 mg/ml; Sigma-Aldrich, Rehovot) in borate buffer (2.37 g borax and 1.55 g boric acid dissolved in 500 ml sterile water, pH 8.4) for 1 h, then rinsed thoroughly with sterile, glass-distilled water. Half of the medium was changed after 6 h in culture and every 2nd day thereafter, starting on day 2, for a total culture time of 10-14 days. Microglia were shaken off the primary mixed brain glial cell cultures (150 rpm, 37° C., 6 h) with maximum yields between days 10 and 14, seeded (10^5 cells/ml) onto PDL-pretreated 24-well plates (1 ml/well; Corning, N.Y., N.Y.), and grown in culture medium for microglia [RPMI-1640 medium (Sigma-Aldrich, Rehovot) supplemented with 10% FCS, L-glutamine (1 mM), sodium pyruvate (1 mM), β-mercaptoethanol ([…]), penicillin (100 U/ml), and streptomycin ([…])]. The cells were allowed to adhere to the surface of a PDL-coated culture flask (30 min, 37° C./5% CO2), and non-adherent cells were rinsed off.
Cover slips from co-cultures of NPCs and mouse microglia were washed with PBS, fixed as described above, treated with a permeabilization/blocking solution containing 10% FCS, 2% bovine serum albumin, 1% glycine, and 0.1% Triton X-100 (Sigma-Aldrich, Rehovot), and stained with a combination of mouse anti-[…] (anti-βIII-T) isoform C-terminus antibodies (1:500; Chemicon, Temecula, Calif.), rat anti-CD11b (MAC1; 1:50; BD—Pharmingen, Franklin Lakes, N.J.) and hamster anti-CD11c (1:100; eBioscience, San Diego, Calif.). To capture the microglia FITC- or Cy3-conjugated Bandeiraea simplicifolia isolectin B4 (IB-4; 1:50; Sigma-Aldrich, Rehovot) was used. To detect expression of human Aβ anti-Aβ (human amino-acid residues 1-17) (mouse, clone 6E10; Chemicon) was used.
On the basis of our previous findings, we suspected that the switch from a CD11b^+/CD11c^−/IGF-1^− to a CD11b^+/CD11c^+/IGF-I^+ microglial phenotype in the Cop-1 vaccinated Tg-AD mice might be attributable to IL-4. We examined this possibility in vitro. […] In contrast, the expression of CD11c induced by IL-4 was not transient. Quantification of the ability of IL-4 to induce CD11c expression even after the microglia were pretreated with Aβ is shown in FIG. 4D.
Thus, upregulation of CD11c on bone marrow derived myeloid cells by […] will allow the cells to reach injured sites and induce beneficial effect.

Assay [3] relates to microglia. The note with it: added to microglia activated by aggregated Aβ (Butovsky et al., 2005); cited from earlier work.
Assay [4] deals with neural stem/progenitor cells (NPCs) co-cultured with microglia. Briefly: Co-culture of GFP-expressing neural progenitor cells with treated microglia, neurogenesis (GFP+/βIII-T+ cells). It is filed as cell-based, mouse. The conditions noted are these: cytokine 10 ng/ml added for 48 h after 48 h aggregated Aβ(1-40) 5 μM. As for the experimental part:
Coronal sections (2 mm thick) of tissue containing the subventricular zone of the lateral ventricle were obtained from the brains of adult C57Bl/6J mice. The tissue was minced and then incubated for digestion at 37° C., 5% CO2 for 45 min in Earle's balanced salt solution containing 0.94 mg/ml papain (Worthington, Lakewood, N.J.) and 0.18 mg/ml of L-cysteine and EDTA. After centrifugation at 110×g for 15 min at room temperature, the tissue was mechanically dissociated by pipette trituration. Cells obtained from single-cell suspensions were plated (3500 cells/cm^2) in 75-cm^2 Falcon tissue-culture flasks (BD Biosciences, San Diego, Calif.), in neural stem/progenitor cell (NPC)-culturing medium [Dulbecco's modified Eagles's medium (DMEM)/F12 medium (Gibco/Invitrogen, Carlsbad, Calif.) containing 2 mM L-glutamine, 0.6% glucose, 9.6 μg/ml putrescine, 6.3 ng/ml progesterone, 5.2 ng/ml sodium selenite, 0.02 mg/ml insulin, 0.1 mg/ml transferrin, 2 μg/ml heparin (all from Sigma-Aldrich, Rehovot, Israel), fibroblast growth factor-2 (human recombinant, 20 ng/ml), and epidermal growth factor (human recombinant, 20 ng/ml; both from Peprotech, Rocky Hill, N.J.)]. Spheres were passaged every 4-6 days and replated as single cells. Green fluorescent protein (GFP)-expressing NPCs were obtained as previously described (Pluchino et al., 2003).
Brains from neonatal (P0-P1) C57Bl/6J mice were stripped of their meninges and minced with scissors under a dissecting microscope (Zeiss, Stemi DV4, Germany) in Leibovitz-15 medium (Biological Industries, Kibbutz Beit Ha-Emek, Israel). After trypsinization (0.5% trypsin, 10 min, 37° C./5% CO2), the tissue was triturated. The cell suspension was washed in culture medium for glial cells [DMEM supplemented with 10% fetal calf serum (FCS; Sigma-Aldrich, Rehovot), L-glutamine (1 mM), sodium pyruvate (1 mM), penicillin (100 U/ml), and streptomycin ([…])] and cultured at 37° C./5% CO2 in 75-cm^2 Falcon tissue-culture flasks (BD Biosciences) coated with poly-D-lysine (PDL) (10 mg/ml; Sigma-Aldrich, Rehovot) in borate buffer (2.37 g borax and 1.55 g boric acid dissolved in 500 ml sterile water, pH 8.4) for 1 h, then rinsed thoroughly with sterile, glass-distilled water. Half of the medium was changed after 6 h in culture and every 2nd day thereafter, starting on day 2, for a total culture time of 10-14 days. […]

These results are taken from patent publication US9089509B2, “Method of treatment of age-related macular degeneration” (YEDA RESEARCH AND DEVELOPMENT CO., LTD., priority 2006, dated 2015).

As to “IL-4: recombinant mouse IL-4, a cytokine derived from T-helper (Th)-2 cells”, in the assay on microglia [1], the “ability of microglia to engulf aggregated Aβ(1-40) (intracellular immunoreactive Aβ)” value is recorded as “did not interfere with the ability of microglia to engulf Aβ”. Further, the “CD11c expression by microglia” value in the assay on microglia [2] (5-day microglia cultures, vs untreated (FIG. 4A)) is reported as “abundantly expressed”. For the same substance, the “persistence of induced CD11c expression as a function of time in culture” value with microglia [2] (FIG. 4C) is reported as “not transient”. The “CD11c expression by microglia pre-exposed to Aβ” value in the assay on microglia [2] (cytokine added 3 days after exposure to aggregated Aβ(1-40) (FIG. 4B, 4D)) is “able to induce them to express CD11c”. Further, the “amoeboid morphology of Aβ-treated microglia” value in the assay on microglia [2] (on addition of cytokine, dendritic-like morphology (FIG. 4B)) is recorded as “reversible on addition of IL-4”. Moreover, in the assay on microglia [3], the “effect on Aβ-induced down-regulation of IGF-I, up-regulation of TNF-α and failure to act as APCs” value is listed as “can reverse the down-regulation of IGF-I expression”. In assay [4], the “counteracting the negative effect of Aβ-activated microglia on NPC survival and differentiation” value is given as “partially counteracted”.
